Data taken from patent US20230167088A1, “1-PYRAZINYLPYRAZOLYL-3-OXYALKYL ACIDS AND THEIR DERIVATIVES, AND THEIR USE FOR CONTROL OF UNDESIRED PLANT GROWTH” (BAYER AKTIENGESELLSCHAFT, priority 2020, published 2023).

What was measured:
DIGSA = test: Herbicidal post-emergence action 1a (greenhouse pots, visual rating); type: in vivo, Digitaria sanguinalis; conditions: rated visually about 3 weeks after treatment, 100% = plants have died, 0% = like control plants
Method in brief: (§1)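 Visual scoring versus untreated plants (100% = plants dead, 0% = as control) followed roughly 3 weeks in the greenhouse after treatment. Plants grown in sandy loam pots had been sprayed on green parts at the one-leaf stage, 2–3 weeks post-sowing, with aqueous WP/EC preparations containing 0.5% additive, 600 l/ha, at 320 and/or 80 g/ha.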

ECHCG [1] = test: as above; type: in vivo, Echinochloa crus-galli; conditions: rated visually about 3 weeks after treatment, 100% = plants have died, 0% = like control plants
Method in brief: as §1

SETVI [2] = test: as above; type: in vivo, Setaria viridis; conditions: rated visually about 3 weeks after treatment, 100% = plants have died, 0% = like control plants
Method in brief: as §1

PHBPU = test: as above; type: in vivo, Pharbitis purpurea; conditions: visual rating about 3 weeks after treatment
Method in brief: as §1

VIOTR [3] = test: as above; type: in vivo, Viola tricolor; conditions: visual rating about 3 weeks after treatment
Method in brief: as §1

VERPE [4] = test: as above; type: in vivo, Veronica persica; conditions: visual rating about 3 weeks after treatment
Method in brief: as §1

ALOMY = test: Herbicidal pre-emergence action 2a (greenhouse pots, visual scoring); type: in vivo, Alopecurus myosuroides; conditions: dosage 320 g/ha, visual scoring after about 3 weeks
Method in brief: (§2)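 The soil covering sown seeds is treated with an aqueous suspension or emulsion of wettable powder or emulsion concentrate (0.5% additive, 600 l/ha), corresponding to 320 g/ha and/or 80 g/ha. After about 3 weeks of greenhouse growth, damage is scored visually as a percentage.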

AVEFA = test: as above; type: in vivo, Avena fatua; conditions: dosage 320 g/ha, visual scoring after about 3 weeks
Method in brief: as §2

ECHCG [5] = test: as above; type: in vivo, Echinochloa crus-galli; conditions: dosage 320 g/ha, visual scoring after about 3 weeks
Method in brief: as §2

SETVI [6] = test: as above; type: in vivo, Setaria viridis; conditions: dosage 320 g/ha, visual scoring after about 3 weeks vs untreated controls
Method in brief: as §2

MATIN [7] = test: as above; type: in vivo, Matricaria inodora; conditions: dosage 320 g/ha, visual scoring after about 3 weeks vs untreated controls
Method in brief: as §2

VIOTR [8] = test: as above; type: in vivo, Viola tricolor; conditions: dosage 320 g/ha, visual scoring after about 3 weeks vs untreated controls
Method in brief: as §2

VERPE [9] = test: as above; type: in vivo, Veronica persica; conditions: dosage 320 g/ha, visual scoring after about 3 weeks vs untreated controls
Method in brief: as §2

STEME [10] = test: Herbicidal post-emergence action 1b (twin sowing, 1280 g/ha); type: in vivo, Stellaria media; conditions: dosage 1280 g/ha, visual rating about 3 weeks after treatment
Method in brief: (§3)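 Compounds formulated as WP or EC were applied with 0.5% additive in 600 L/ha water onto one-leaf-stage weeds, each pot sown with one monocot and one dicot species in sandy loam. After roughly 3 weeks in the greenhouse, visual percent activity was scored against untreated plants.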

ECHCG [11] = test: Herbicidal pre-emergence action 2b (doubly sown, 1280 g/ha); type: in vivo, Echinochloa crus-galli; conditions: doubly sown pots, dosage 1280 g/ha, visual scoring after about 3 weeks
Method in brief: (§4)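 Visual % scores against untreated plants (0% = like control, 100% = dead) were taken roughly 3 weeks after treatment in the greenhouse. Compounds, as WP or EC with 0.5% additive, were applied in 600 l/ha water onto covering soil over seeds of paired mono-/dicot weeds in sandy loam.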

AMARE = test: as above; type: in vivo, Amaranthus retroflexus; conditions: doubly sown pots, dosage 1280 g/ha, visual scoring after about 3 weeks
Method in brief: as §4

MATIN [12] = test: as above; type: in vivo, Matricaria inodora; conditions: doubly sown pots, dosage 1280 g/ha, visual scoring after about 3 weeks
Method in brief: as §4

STEME [13] = test: as above; type: in vivo, Stellaria media; conditions: doubly sown pots, dosage 1280 g/ha, visual scoring after about 3 weeks
Method in brief: as §4

ECHCG [14] = test: Herbicidal post-emergence action 1b (twin sowing, 1280 g/ha); type: in vivo, Echinochloa crus-galli; conditions: dosage 1280 g/ha, visual rating about 3 weeks after treatment
Method in brief: as §3

POLCO = test: Herbicidal pre-emergence action 2a (greenhouse pots, visual scoring); type: in vivo, Polygonum convolvulus; conditions: dosage 320 g/ha, visual scoring after about 3 weeks vs untreated controls
Method in brief: as §2

Row | SMILES | Post-emergence action against DIGSA in % (DIGSA; Dosage 320 g/ha) [%] | Post-emergence action against SETVI in % (SETVI [2]; Dosage 80 g/ha) [%] | Post-emergence action against SETVI in % (SETVI [2]; Dosage 320 g/ha) [%] | Post-emergence action against PHBPU in % (PHBPU; dosage 80 g/ha) [%] | Post-emergence action against PHBPU in % (PHBPU; dosage 320 g/ha) [%] | Post-emergence action against VIOTR in % (VIOTR [3]; dosage 80 g/ha) [%] | Post-emergence action against VIOTR in % (VIOTR [3]; dosage 320 g/ha) [%] | Post-emergence action against VERPE in % (VERPE [4]; dosage 80 g/ha) [%] | Post-emergence action against VERPE in % (VERPE [4]; dosage 320 g/ha) [%] | Pre-emergence action against ALOMY in % (ALOMY) [%] | Pre-emergence action against AVEFA in % (AVEFA) [%] | Pre-emergence action against ECHCG in % (ECHCG [5]) [%] | Pre-emergence action against SETVI in % (SETVI [6]) [%] | Pre-emergence action against VIOTR in % (VIOTR [8]) [%] | Pre-emergence action against VERPE in % (VERPE [9]) [%] | Post-emergence action at 1280 g/ha against STEME in % (STEME [10]) [%] | Pre-emergence action at 1280 g/ha against AMARE in % (AMARE) [%] | Pre-emergence action at 1280 g/ha against MATIN in % (MATIN [12]) [%] | Pre-emergence action at 1280 g/ha against STEME in % (STEME [13]) [%] | Pre-emergence action against POLCO in % (POLCO) [%] | further results
1 | COC(=O)COc1nn(-c2cnccn2)c(-c2ccc(F)c(F)c2)c1Br [Example I-15] | 90 | 90 | 90 | 90 | 90 | 90 | 90 | 90 | 90 | 90 | 80 | 100 | 100 | 100 | 100 |  |  |  |  |  | Post-emergence action against ECHCG in % (ECHCG [1]; Dosage 320 g/ha): 90%; Pre-emergence action against MATIN in % (MATIN [7]): 100%
2 | COC(=O)C(C)Oc1nn(-c2cnccn2)c(-c2ccnc(F)c2)c1Cl (racemic) [Example I-05] | 90 |  | 80 |  |  | 90 | 90 | 80 | 90 | 100 | 80 | 90 | 90 | 100 | 100 | 90 | 100 | 90 | 100 |  | Post-emergence action against DIGSA in % (DIGSA; Dosage 80 g/ha): 80%; Pre-emergence action at 1280 g/ha against ECHCG in % (ECHCG [11]): 100%
3 | COC(=O)C(C)Oc1nn(-c2cnccn2)c(-c2ccnc(F)c2)c1Br (racemic) [Example I-10] | 80 |  | 80 |  |  | 90 | 100 | 80 | 90 | 100 | 90 |  | 100 | 80 |  | 90 | 100 | 90 | 100 |  | 
4 | C[C@@H](Oc1nn(-c2cnccn2)c(-c2cccc(F)c2)c1Br)C(=O)O [Example I-48] |  | 80 |  |  |  |  |  |  |  | 100 | 90 | 100 | 100 | 100 | 100 | 100 | 100 | 100 | 100 | 100 | Post-emergence action against ECHCG in % (ECHCG [1]; Dosage 80 g/ha): 90%; Post-emergence action at 1280 g/ha against ECHCG in % (ECHCG [14]): 100%; Pre-emergence action against MATIN in % (MATIN [7]): 100%; Pre-emergence action at 1280 g/ha against ECHCG in % (ECHCG [11]): 100%
5 | COC(=O)[C@@H](C)Oc1nn(-c2cnccn2)c(-c2cncc(F)c2)c1C#N [Example I-40] | 80 |  | 90 |  | 90 |  | 80 |  | 80 | 100 |  |  | 100 | 90 |  | 100 | 100 | 100 | 100 | 80 | Pre-emergence action at 1280 g/ha against ECHCG in % (ECHCG [11]): 100%
6 | COC(=O)COc1nn(-c2cnccn2)c(-c2cncc(F)c2)c1Br [Example I-07] | 90 | 80 | 80 | 90 | 90 | 80 | 90 | 90 | 90 | 100 | 90 | 100 | 100 | 100 | 100 |  |  |  |  | 90 | Post-emergence action against DIGSA in % (DIGSA; Dosage 80 g/ha): 80%; Post-emergence action against ECHCG in % (ECHCG [1]; Dosage 80 g/ha): 80%; Post-emergence action against ECHCG in % (ECHCG [1]; Dosage 320 g/ha): 90%; Pre-emergence action against MATIN in % (MATIN [7]): 90%
7 | COC(=O)C(C)Oc1nn(-c2cnccn2)c(-c2cncc(F)c2)c1Br (racemic) [Example I-08] | 80 | 80 | 80 | 80 | 90 | 90 | 90 | 90 | 90 | 100 | 90 | 100 | 100 | 100 | 100 |  |  |  |  | 100 | Post-emergence action against ECHCG in % (ECHCG [1]; Dosage 80 g/ha): 80%; Post-emergence action against ECHCG in % (ECHCG [1]; Dosage 320 g/ha): 90%; Pre-emergence action against MATIN in % (MATIN [7]): 90%
8 | CCOC(=O)COc1nn(-c2cnccn2)c(-c2ccccc2)c1Br [Example I-01] | 80 |  |  | 80 | 80 | 90 | 90 | 80 | 90 | 80 |  | 80 |  |  | 90 | 100 | 100 | 100 | 100 | 80 | Post-emergence action against ECHCG in % (ECHCG [1]; Dosage 320 g/ha): 90%; Pre-emergence action against MATIN in % (MATIN [7]): 90%; Pre-emergence action at 1280 g/ha against ECHCG in % (ECHCG [11]): 100%
9 | COC(=O)C(C)Oc1nn(-c2cnccn2)c(-c2ccc(F)c(F)c2)c1C#N (racemic) [Example I-22] | 80 | 80 | 80 | 80 | 90 | 80 | 90 | 80 | 90 | 100 | 90 |  | 100 | 90 |  | 100 | 100 | 90 | 100 | 80 | Pre-emergence action at 1280 g/ha against ECHCG in % (ECHCG [11]): 100%
